Patent US20020165133A1 (priority 2001, published 2002)
Entries after “also recorded” stand apart in the source; their conditions may differ.

Test system: C57BL/6 mice
Assay: Test of hair regrowth effects on the shaved backs of C57BL/6 mice
Format: in vivo
Settings: C57BL/6 mice (female), applied over hair removed area once a day for 30 days, 100 μl (0.05% w/v)
Description: C57BL/6 mice (female), 42˜49 days old, were used in this test.
The mice were removed of hair on their backs using an electric shaver, and weighed. The mice were divided into several groups with weights equally distributed. […] The degree of hair growth were judged by naked eye and the back sides of the mice were photographed.

Substance: [Leu^4]cyclosporin A [M21]
- hair growth effect (degree of hair growth judged by naked eye): no significant effect; also recorded: no hair growth effect
